# Patent US20250367222A1, “TREATMENTS FOR CANCERS DRIVEN BY DNAJB1-PRKACA GENE FUSIONS” (Wisconsin Alumni Research Foundation, priority 2024, published 2025)
# Where two headings read alike, the source gives them in different places.
# How the values were obtained:
# Format in all cases: cell-based, human
# [1] = system: DNAJB1-PRKACA expressing H33 cells; test: Cell viability assay (CellTiter Glo 2), drug response; settings: H33 cells; for IC50: Homo sapiens, read-out: LC50 (IC50) value
# Protocol: (§1) To determine the changes in cell proliferation in HepG2 cells and HepG2^DNAJB1-PRKACA clones, CellTiter Glo 2 assay systems (Promega) were used. Approximately 2.0×10^3 cells/well were seeded in a 96-well plate and incubated in RPMI1640 culture medium over 4 days at 37° C. and 5% CO2. After addition of the CellTiter Glo 2 reagent to cell culture medium in 96 well plate and incubation for 10 minutes, luminescence was measured by CLARIOstar Plus microplate reader (BMG Labtech, Ortenberg, Germany). Additionally, the growth of HepG2 cells and HepG2^DNAJB1-PRKACA clones were measured using hemocytometer cell counting. Cells (5.0×10^4 cells/well) were seeded in a 6-well plate and incubated in RPMI1640 culture medium for 4 days at 37° C. and 5% CO2. Cells were trypsinized, stained with 0.4% Trypan Blue (Invitrogen) and counted using hemocytometer (Day 0, 2 and 4).
# For drug-response analysis, HepG2 cells and HepG2^DNAJB1-PRKACA clones (H12, H33) (2.0×10^3 cells/well) were seeded in a 96-well plate and incubated with RPMI1640 cell culture medium for 24 hours. After incubation, cells were treated with SY-5609 (1 pM-10 μM) (MedChemExpress, Monmouth Junction, NJ), YKL-5-124 (100 pM-10 μM) (MedChemExpress) or vehicle (DMSO) for 48, 72 hours or 120 hours. Cell viability was measured using CellTiter Glo 2 reagent. Percent of survived cells and growth inhibition were calculated relative to vehicle control (as 100% of survival). The dose-response curves and IC50 values were analyzed using GraphPad Prism software (San Diego, CA). Differences between conditions were tested with a t-test and a p<0.05 was taken as statistically significant.
# [2] = system: H12 (HepG2^DNAJB1-PRKACA) clone; test: Cell viability assay (CellTiter Glo 2), drug response, confirmatory clone; settings: 48 hr drug treatment
# Protocol: as §1
# For drug-response analysis, HepG2 cells and HepG2^DNAJB1-PRKACA clones (H12, H33) (2.0×10^3 cells/well) were seeded in a 96-well plate and incubated with RPMI1640 cell culture medium for 24 hours. […] Cell viability was measured using CellTiter Glo 2 reagent. Percent of survived cells and growth inhibition were calculated relative to vehicle control (as 100% of survival). The dose-response curves and IC50 values were analyzed using GraphPad Prism software (San Diego, CA). […]
# H33 cells = test: Caspase 3/7 assay (Caspase-Glo); settings: SY-5609 100 nM, 1 μM, 10 μM, 24 hours, all p<0.0001
# Protocol: (§2) To measure the apoptosis activity in HepG2 cells and HepG2^DNAJB1-PRKACA clones, Caspase-Glo 3/7 and 8 assay systems (Promega) were used. Approximately 2.0×10^3 cells/well were seeded in a 96-well plate and (1) incubated in RPMI1640 culture medium over 4 days at 37° C. and 5% CO2 or (2) incubated in RPMI1640 culture medium containing SY-5609 (0.1-10 μM) (MedChemExpress) or DMSO for 24 hours. After addition of the Caspase-Glo 3/7 or 8 reagent to cell culture medium in 96 well plate and incubation for 30 minutes, luminescence was measured by CLARIOstar Plus microplate reader (BMG Labtech).
# H12 clone = test: Caspase 3/7 assay (Caspase-Glo); settings: 24 hours
# Protocol: as §2
# SLC16A14 and LINC00473 = test: RT-qPCR of FLC-specific super enhancer driven genes in H33 cells; settings: single agent, RT-qPCR vs DMSO control
# Protocol: HepG2 and HepG2^DNAJB1-PRKACA clones were incubated with RPMI1640 cell culture for 24 hours, treated with SY-5609 (1-300 nM) (MedChemExpress), YKL-5-124 (1-300 nM) (MedChemExpress) or vehicle (DMSO) for 24 hours. Total RNA was isolated from cells using the Qiagen RNeasy kit (Qiagen, Valencia CA). The isolated RNAs (20 ng) were reverse-transcribed and quantitative PCR (qPCR) were perform using GoTaq Probe 1-Step RT-PCR system (Promega) in a QuantStudio 7 Flex Real-Time PCR System (Applied Biosystems). The reverse-transcription was conducted at a temperature of 45° C. for 15 minutes, and 95° C. for 2 minutes during one cycle. The denaturation, annealing and extension were performed at 95° C. for 15 seconds and 60° C. for 1 minutes (45 cycles). The mRNA levels were measured with Taqman Gene Expression System (FAM-MGB) (Applied Biosystems) (Assay ID: DNAJB1: Hs00356730_g1, DNAJB1-PRKACA fusion: Hs05061318_ft, SLC16A14: Hs00541300_m1, LINC00473: Hs00293257_m1, VCAN: Hs00171642_m1, OAT: Hs00236852_m1, GAPDH: Hs02786624_g1, B-Actin: Hs01060665_g1). To detect PRKACA mRNA expression, the qPCR primers (Primer 1: 5′-AGCGGGACTTTCCCATTT-3′ (SEQ ID NO:7), Primer 2: 5′-AAGAAGGGCAGCGAGCA-3′ (SEQ ID NO:8)) and FAM-labeled probe (5′-FAM-[…]-3′ (SEQ ID NO:9)) were designed using PrimerQuest Tool (IDT). The qPCR primers and probe spanned the boundary of exon 1-2 junction since DNAJB1-PRKACA fusion gene harbors exon 2-10 of PRKACA gene. GAPDH and β-Actin mRNA levels were used as internal control and the data were analyzed using the ^ΔΔCt method.
# To investigate the synergistic effect between SY-5609 (CDK7 inhibitor) and VIP-152 or NVP-2 (CDK9 inhibitor), HepG2^DNAJB1-PRKACA (H33) cells (2.0×10^3 cells/well) were seeded in an 8×8 matrix in a 96-well plate and incubated with RPMI1640 cell culture medium for 24 hours at 37° C. and 5% CO2. Cells were treated with SY-5609 (0.1-100 nM), VIP-152 (1-100 nM), NVP-2 (0.1-10 nM) or vehicle (DMSO) for 72 hours. Cell viability was measured using CellTiter Glo 2 reagent. Percent of survived cells and growth inhibition were calculated relative to vehicle control (as 100% of survival). Synergy scores and the dose-response curves were analyzed using SynergyFinder tool. Drug synergy was evaluated using the highest single-agent (HSA) model and Loewe model (Ianevski et al. 2017). The combination effect of SY-5609 and VIP152 on FLC-specific gene expression and CDK7-mediated RNA Pol II activity was examined in HepG2^DNAJB1-PRKAC (H33) cells. HepG2^DNAJB1-PRKAC (H33) cells were treated with SY-5609 (10-100 nM) and VIP-152 (1-100 nM), NVP-2 (1-10 nM) or vehicle (DMSO) for 24 hours. The total RNA and whole cell lysate were isolated for RT-qPCR and immunoblotting (described above).
smiles,measurement,setting,value
CC1(C)CC[C@H](Nc2ncc(C(F)(F)F)c(-c3c[nH]c4c(P(C)(C)=O)c(C#N)ccc34)n2)CN1 [SY-5609],cell viability,"[1]; 48 hr drug treatment, normalized to DMSO",strong dose-dependent reduction in cell viability
same,IC50,[1]; 48 hours,79.7 nM
same,IC50,[1]; 72 hours,8.67 nM
same,IC50,[1]; 120 hours,1.71 nM
same,cell viability,[2],confirmed in a separate clone
same,caspase 3/7 activity compared to HepG2 cells,H33 cells,significant increase in caspase 3/7 activity
same,caspase 3/7 activity compared to HepG2 cells,H12 clone,confirmed
same,SLC16A14 and LINC00473 expression,SLC16A14 and LINC00473,substantial downregulation
